Like-named read-outs stand apart in the source and are kept apart here.

The test system of data set [1] is HT29 cells. In words: Lysosomal localization with lysotracker green in HT29 cells. The settings on record: 1 h at 4°C followed by 4 hours in DMEM at 37°C.
In data set [2] the test system is HT29 cells. As to conditions: 1 h at 4°C, washed, then 37°C.
The test system of data set [3] is HT29 cells. In words: Confocal laser microscopy receptor binding assay on HT29 cells. Type of data set: cell-based, human. As to conditions: 5 µg/ml in PBS - 1% BSA, 1 hour at 4°C. How it is done:
(§1) Confocal laser microscopy was used to carry out receptor binding assays. […] After fixing with 4% formalin, the plasma membrane was stained by incubation with concanavalin A-biotin (10 µg/mL in PBS - 1% BSA, Molecular Probes, Cat. No. C21420) at 4°C for 15 min and avidin-FITC (0.5 µg/ml in PBS - 1% BSA, Sigma, Cat. No S3762).

Data set [4] concerns HT29 cells. An excerpt:
Nonetheless, down-regulation of receptors and their depletion from the membrane may dramatically impair the efficiency of a peptide-based therapy.

Another data set relates to HaCat cells. The settings on record: 5 µg/ml, 1h at 4°C. How it is done: as §1
In a further data set the test system is human colon tumors. Briefly: Fluorescent detection of NT receptors in colon biopsy sections. Type of data set: binding. As to conditions: 0.5 µg/ml, avidin-FITC.
A further data set concerns the target T1, NT receptors (NTR) (Homo sapiens, UniProt P30989).
T1 construct: HT29 human adenocarcinoma cell membranes, that over-express NTR; endogenous in cells; host or cells: HT29 human colon adenocarcinoma cell membranes
In words: Inhibition of 125I-NT binding to HT29 cell membranes. As to conditions: displacement of 125I-NT, HT29 human adenocarcinoma cell membranes.

Data set [5] deals with healthy and tumoral pancreatic tissues. The settings on record: 0.5 µg/ml, avidin-FITC.
Experimental: (§2) Tumoral and healthy colon and pancreatic tissues were collected from oncological patients undergoing tumor resection. Frozen tissue tek® (Sakura Finetechnical, Tokyo, Japan) embedded tissues were sliced 15 µm thick in a cryostat (Reichert- Jung 2800 frigocut N) and placed on glass slides. Serial sections of the same biopsy were analysed both by hematoxylin/eosin (H&E) light microscopy and by fluorescent confocal microscopy. For immunofluorescent analysis the sections were fixed by immersion in 3% paraformaldehyde in PBS for 15' at room temperature., washed once and stored over night at 4°C with 0.1 M glycine in PBS. After saturation with fetal calf serum, the slices were incubated for 30' at 37°C with NT4(8-13)-Bio (0.5 µg/ml in PBS-BSA 3%) or with the uncorrelated branched peptide (DDHSAV, SEQ ID No. 4)4-Bio (0.5 µg/ml in PBS-BSA 3%), washed twice with PBS and incubated with avidin-FITC (0.5 µg/ml in PBS-BSA 3%) for 15' at room temperature. After washing, the sections were mounted with Mowiol® (Calbiochem, Cat. No. 475904) and sealed with nail polish. Negative controls were carried out incubating the slices (both tumoral and normal tissues) with avidin-FITC without previous incubation with NT4(8-13)-Bio. The fluorescine signal was observed by confocal laser microscopy (BIO-Rad MRC600) with a 488 nm excitation light.
Data set [6] has as its system HT29 cells. Briefly: In vitro cytostatic activity by MTT assay, HT29. Type of data set: cell-based, human. The protocol: HT29 cells were plated in 0.2 ml aliquots at a density of 5 x 10^3 in a 96-well microplate. Different concentrations of NT4-MTX were added 24 hours after plating. Growth inhibition was assessed by MTT assay 6 days later. The same experiments were carried out with the scramble analog of the conjugate and with free MTX.
The same experiments were performed with the scramble analogue [(LRIPRY)4-MTX] and with unconjugated MTX. SW620 (NTR-expressing human colon carcinoma cell line, Istituto Zooprofilattico Sperimentale, Brescia, Italy) and on HCT116 (NTR-expressing human colon carcinoma cell line, Istituto Zooprofilattico Sperimentale, Brescia, Italy cell lines) were also tested with the same procedure.

For data set [7], the system named is HT29 tumors. How it is done: Female CD-1 nude mice (Charles River Laboratories Inc., Wilmington, MA) 6-7 weeks of age (mean weight of 25 g), were injected subcutaneously in the right flank with of 2 x 10^6 HT29 cells.
Tumor volumes were measured daily with a caliper using the following formula: Volume = length x width^2 x Π/6. The tumor volumes for each group were pooled to plot mean tumor growth curves. At the end of the experiment, the mice were sacrificed. Tumors were removed and weighed and the weights compared between treated and control mice.

For data set [8], the system named is HT29 cells. Briefly: Phototoxicity (photokilling) by MTT assay. The settings on record: 4 hours at 37°C in the dark, 100 µM to 0.1 µM, irradiated 3 J/cm^2. The data set is classed as cell-based, human. The protocol:
In order to assess the phototoxicity of NT4(8-13)-Che6 conjugate, photokilling experiments were carried out on HT29 cells. HT29 cells (2 x 10^4/well) were plated in 96-well microplates. After growing for 2 days, the cells were incubated at 37°C in the dark with different concentrations of NT4-Che6 (from 100 µM to 0.1 µM in RPMI with 10% FCS) for 4 hours. The cells were then washed to remove unbound conjugate and irradiated (except dark controls) with a Zeiss KL1500 tungsten halogen lamp (Zeiss, Jena, Germany) equipped with a 600-800 nm band pass filter (Corion, Franklin, MA) and with two optical fibers placed 1 cm from the well. The plate was placed back in the incubator overnight and the phototoxicity of the conjugate was monitored in a MTT assay. Similar experiments were performed with scramble NT4(8-13)-Che6 [(LRIPRY)4-Che6] and with free Che6. Further controls included HT29 cells incubated with the conjugate and not irradiated, cells irradiated and not incubated and untreated cells.

Data set [9] has as its system HT29 tumors. Briefly: In vivo tumor growth retardation, HT29 tumors grafted in nude mice. Further details: species or system CD-1 nude mice. As to conditions: i.v. on days 0, 5, 10 and 15, 4.05 µmol/kg. The text has this:
The invention will be now described by non limiting examples referring to the following figures: • FIGURE 1. […] NT4(8-13) peptide binding and cell internalization. […] Lysosome localization of NT4(8-13)-TMR. […] NT4(8-13) binding to colon and pancreas tumoral biopsies. Confocal microscopy images of (A) human sections of colon carcinoma, (B) healthy colon, (C) pancreatic carcinoma and (D) healthy pancreas. […] NTR regeneration. […] NT4(8-13)-Che6 cytotoxicity. […] The cells were then washed to remove unbound conjugate and irradiated (except for dark controls) with a total light dose of 3 J/cm^2. Drug phototoxicity was assessed by measuring cell survival, using the MTT assay 24 hours after irradiation. Negative controls (--) included HT29 cells incubated with the conjugate and not irradiated, cells irradiated and not incubated and untreated cells. • FIGURE 9. […] Inhibition of cell growth was tested by an MTT assay after 72 hours of incubation. • FIGURE 10. In vivo tumor growth retardation mediated by NT4(8-13)-MTX. […] Five days after the last injection, animals were sacrificed and tumors were removed and weighed.

T1 sequence (P30989 whole entry): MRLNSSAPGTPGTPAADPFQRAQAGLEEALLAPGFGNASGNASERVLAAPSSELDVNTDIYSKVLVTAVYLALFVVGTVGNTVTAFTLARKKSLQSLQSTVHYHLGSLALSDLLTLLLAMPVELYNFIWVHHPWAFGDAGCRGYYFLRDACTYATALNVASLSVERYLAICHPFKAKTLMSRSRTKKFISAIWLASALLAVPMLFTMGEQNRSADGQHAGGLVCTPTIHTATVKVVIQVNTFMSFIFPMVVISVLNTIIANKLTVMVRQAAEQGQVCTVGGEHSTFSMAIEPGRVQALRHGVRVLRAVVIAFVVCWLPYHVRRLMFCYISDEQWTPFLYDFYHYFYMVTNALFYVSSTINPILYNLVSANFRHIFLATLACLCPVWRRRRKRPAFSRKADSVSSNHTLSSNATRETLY
Text for NT receptors (NTR): A tetrameric peptide carrying scrambled NT aminoacids (LRIPRY), scramble NT4(8-13), was used as control and allowed to verify sequence specificity.
Experimental for human colon tumors: as §2

With “tetrameric NT(8-13)4-PEG-Tetramethyl rhodamine [NT4(8-13)-TMR]”, the lysosomal localization entry in the data set with HT29 cells [1] is on record as “colocalization of NT4(8-13)-TMR with lysotracker green was observed”. Besides, the peptide fluorescence localization entry in the data set with HT29 cells [2] (4 hours) was “completely internalised”; in the data set on HT29 cells [2] (18 hours), “complete degradation of the peptide conjugate”; in the data set with HT29 cells [2] (time 0), “localized exclusively on the plasma membrane”; in the data set on HT29 cells [2] (two hours), “present on the plasma membrane and in the cytoplasm”. For the same molecule, the “red fluorescent signal on the plasma membrane” value with HT29 cells [3] is reported as “binding of the peptide to membrane receptors”. For the same molecule, the “saturation of membrane receptors” value with HT29 cells [4] (100 µg/ml in PBS - 1% BSA, 1 h at 4°C) is “saturated”. Moreover, the rhodamine signal entry in the data set on HaCat cells is on record as “no rhodamine signal”.

“Tetrameric NT(8-13)4-PEG-Biotin [NT4(8-13)-Bio]”: the “green signal (avidin FITC) after receptor saturation” value in the data set on HT29 cells [4] (0.5 µg/ml, directly after saturation with NT4(8-13)-TMR) is on record as “did not produce any detectable green signal”. Also, the “receptor availability for ligand binding after regeneration” value in the data set with HT29 cells [4] (after saturation with NT4(8-13)-TMR, washing and 37°C in culture medium overnight) is “the receptor was again available for ligand binding”. Further, the “fluorescent staining of tumoral biopsies” value with human colon tumors (colon tumoral biopsies (ten), 30' at 37°C) is “All colon tumoral specimens were positively stained”. Moreover, the “fluorescent staining of healthy tissue” value in the data set on human colon tumors (corresponding normal colon tissue from the same patient) is “only one of the healthy tissues showed a low fluorescent signal”. For the same molecule, on NT receptors (NTR), the concentration for half-maximal inhibition (IC50) stood at 0.1 nM. Further, the “binding to tumoral versus healthy tissue” value in [5] was “Analogous results”.

With “tetrabranched NT(8-13)-PEG-Methotrexate [NT4(8-13)-MTX]”, in the data set on HT29 cells [6], the “cytostatic activity (inhibition of cell growth, MTT)” value is recorded as “active”. Besides, in the data set with HT29 tumors [7] (4.05 µmol/kg iv on days 0, 5, 10 and 15), the mice death result is on record as “no mice death was observed”. The Tumor weight entry in the data set with HT29 tumors [7] (at the end of the experiment, 4.05 µmol/kg iv x4) was “significantly reduced”. Besides, the tumor growth entry with HT29 tumors [7] (iv on days 0, 5, 10 and 15, 4.05 µmol/kg, compared to control mice) was “prevented tumor growth”. In addition, the “volume of tumors relative to mice injected with PBS” value in the data set on HT29 tumors [7] (iv on days 0, 5, 10 and 15, 4.05 µmol/kg, over the whole treatment) is recorded as “about one third”. This molecule gave an IC50 at NT receptors (NTR) of 500 nM.

For the molecule “tetrabranched NT(8-13)4-PEG-Chlorine e6 [NT4(8-13)-Che6]”, the half-inhibitory concentration (IC50) at NT receptors (NTR) amounted to 2200 nM. Besides, the “phototoxicity (cell survival, MTT)” value in the data set on HT29 cells [8] is recorded as “maintained its cytotoxicity”.

Take `CN(Cc1cnc2nc(N)nc(N)c2n1)c1ccc(C(=O)N[C@@H](CCC(=O)O)C(=O)O)cc1` [MTX, Methotrexate]: in the data set on HT29 tumors [9] (compared to control mice), the tumor growth result was “slight decrease in tumor growth”. Moreover, the “Tumor weight, measured at the end of the experiment” value in the data set on HT29 tumors [9] (five days after the last injection, Fig. 10) was “almost the same”.
